Results from patent US7638486B2, “Method for promoting hard tissue formation” (Acologix, Inc., priority 2005, dated 2009).

Assays:
[1] = system: primary osteoblasts collected from fetal mouse calvaria; assay: Alkaline phosphatase (ALP) activity in primary osteoblasts under suboptimal BMP-2; type: cell-based
Experimental: The peptide of SEQ ID No. 8 was added to this culture system at 0, 0.2, 0.4, 1.0, 2.0, and 4.0 μM. The levels of ALP were evaluated on days 0, 3, and 7.

hemi-calvariae [2] = settings: Middleton-Hardie et al., ASBMR 2005; cited from earlier work
COX-2 mRNA [3] = assay: Gene expression microarray analysis in Clonetics hMSC cells; type: cell-based, human; settings: peptide 1000 ng/ml
Experimental: Materials and Methods: The effect of the peptide of SEQ ID No. 8 treatment on gene expression was assessed in the Clonetics hMSC cells using gene expression microarray analysis as previously described (Locklin et al., 2001). Briefly, cells were plated in five T-150 vented flasks at a density of 1.0×10^6 cells per flask in growth medium and cultured at 37° C. for 48 hours. Flasks containing either vehicle alone or the peptide of SEQ ID No. 8 (1000 ng/ml) were cultured for 24 hr or for 48 h in standard differentiation medium. At each time point, the vehicle and treatment flasks were trypsinized, cells removed and total RNA was extracted for analysis via the Qiagen Rneasy Kit (Qiagen). 8 μg of total RNA were amplified and biotin labeled. The mixture was hybridized to a U95A human gene expression microarray (Affymetrix) containing probes for 12,600 human genes. The chips were then washed, stained with phycoerythrin-streptavidin and read with an Affymetrix scanner. Hybridization intensity values to mRNA frequency were calculated in molecules per million. Analysis of intensity values was conducted using Spotfire Decision Site (Somerville, Mass.) software.

hemi-calvariae [4] = assay: Mouse calvaria organ culture assay (PGE2 ELISA, histology); type: cell-based, Swiss Webster mice; settings: peptide 1, 10, 100 μg/mL daily for seven days
Source text: Methods: Calvarial organ cultures have been used for many years to study the regulation of bone formation and bone resorption. An advantage of this method compared to in vivo studies is the absence of confounding effects (such as hormonal and mechanical influences) meaning a more direct effect of the test substances on bone tissue can be determined. Also compared to isolated cell systems, interrelationships between the different cell types in the bone and between these cells and the bone matrix are preserved.
Briefly, hemi-calvariae were isolated from 4 day old Swiss Webster mice and incubated in media on steel mesh grids. The peptide of SEQ ID NO. […] Samples of the conditioned media were collected daily for analysis of PGE2 concentration (R&D Systems ELISA kit). At the end of the culture the bones were analyzed for new bone formation and number of osteoblasts using histology.

COX-2 mRNA [5] = settings: Nagel et al., Journal of Cellular Biochemistry, 2004; cited from earlier work
[6] = system: hard tissue forming cells; assay: Biological activities for the purpose of the invention (test not specified)
dorsal muscle of mice = assay: Ectopic bone formation in mouse dorsal muscle with implanted polymer; type: in vivo, ICR mice
Source text: It has been known that BMP causes bone formation when administered or implanted in mammals when given. The activity can be enhanced when given in the appropriate delivery vehicle.
The mice were sacrificed 3 weeks later and the newly formed bones were isolated for evaluation using soft X-ray radiograph and bone mineral density determination.

[7] = system: MC3T3-E1 subclone 4 cells; assay: BMP-2 stimulated PGE2 production by MC3T3 cells (ELISA); type: cell-based, mouse; settings: 24 hours, with BMP-2
Experimental: Methods: MC3T3-E1 subclone 4 cells are neonatal mouse derived calvarial preosteoblasts with fibroblast morphology. […] For this experiment the MC3T3 cells were plated 10^5 cells per well in 24 well plates in growth medium (alpha MEM+1 mM sodium pyruvate+10% fetal bovine serum (FBS)). After 24 hours of culture the media was removed and replaced with assay media (alphaMEM+1 mM sodium pyruvate+2% FBS) containing the test substances. Each test group utilized 4 wells. After incubation for a further 24 hours the media was removed and the levels of PGE2 were determined using an ELISA (R&D Systems).

human mesenchymal cells = assay: PGE2 in human mesenchymal cells in culture; type: cell-based; settings: peptide alone

## TDLQERGDNDISPFSGDGQPFKD [SEQ ID No. 8]
[1]; 2 μM peptide with 25 ng/mL BMP-2
  ALP activity increase as compared with BMP-2 treated cells without the peptide: ~2 times
[1]; BMP-2 25 ng/mL plus peptide 0.2-4.0 μM, dose dependent
  ALP activity in osteoblastic cells: significantly increased
hemi-calvariae [2]
  production of PGE2 in mouse calvaria organ culture assay: dose dependently upregulated
COX-2 mRNA [3]
  COX-2 mRNA increase (summary in discussion): ~3 fold
COX-2 mRNA [3]; 24 h
  COX-2 mRNA increase: 3.6 fold
COX-2 mRNA [3]; 48 h
  COX-2 mRNA increase: 2.2 fold
hemi-calvariae [4]
  PGE2 production: significant increases
hemi-calvariae [4]; histology
  bone cell density: significant increases
  osteoblast surface: significant increases
  parameters of new bone formation: significant increases
COX-2 mRNA [5]
  COX-2 in human mesenchymal stem cells: upregulated
[6]
  Biological activities relative to other sequences: highest activities
Dorsal muscle of mice; 3 μg BMP-2 in 30 mg polymer, peptide 50, 250 or 1250 μg, three weeks
  Effect of the peptide on BMP-2 bone formation (size and mineral density of ectopic ossicles): significant enhancement
Dorsal muscle of mice; 3 μg rhBMP-2, varying amounts of peptide
  Bone formation when peptide added to suboptimal dose of rhBMP-2: significant and dose dependent increase
Dorsal muscle of mice; 5 μg BMP-2 in 30 mg polymer, peptide 50, 250 or 1250 μg, three weeks
  Efficacy of the peptide on bone formation (size and mineral density of ectopic ossicles): unclear
[7]
  BMP-2 induced PGE2 production: increases
Human mesenchymal cells
  PGE2 increase: did not result in a significant increase
